Laboratory results: PubChem BioAssay AID330 (DTP/NCI, 2004)
Where “and” joins values, the source holds several entries; their conditions need not be identical. Equal entries are not always repeated. Inconclusive results and toxic doses are left out.

Test system: P388 leukemia ip, CD2F1 mice, survival T/C
Experiment: NCI In Vivo Anticancer Drug Screen. Data for tumor model P388 Leukemia (intraperitoneal) in CD2F1 (CDF1) mice
Conditions: endpoint: median survival time, higher = longer survival
In short: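 Mice carrying the transplanted tumor received test compound or vehicle. Survival was recorded in each group, and the value is the treated-group measurement divided by that of the vehicle-treated control group.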

[1] = dose: 50.0 mg/kg/injection, schedule: Q01DX005 (ip), vehicle: saline with Tween-80
[2] = dose: 100.0 mg/kg/injection, schedule: Q01DX005 (ip), vehicle: saline with Tween-80
[3] = dose: 200.0 mg/kg/injection, schedule: Q01DX005 (ip), vehicle: saline with Tween-80
[4] = dose: 50.0 mg/kg/injection, schedule: Q01DX009 (ip), vehicle: saline with Tween-80
[5] = dose: 100.0 mg/kg/injection, schedule: Q01DX009 (ip), vehicle: saline with Tween-80
[6] = dose: 200.0 mg/kg/injection, schedule: Q01DX009 (ip), vehicle: saline with Tween-80
[7] = dose: 25.0 mg/kg/injection, schedule: Q01DX005 (ip), vehicle: saline with Tween-80
[8] = dose: 50.0 mg/kg/injection, schedule: Q04DX002 (ip), vehicle: saline with Tween-80
[9] = dose: 100.0 mg/kg/injection, schedule: Q04DX002 (ip), vehicle: saline with Tween-80
[10] = dose: 200.0 mg/kg/injection, schedule: Q04DX002 (ip), vehicle: saline with Tween-80
[11] = dose: 100.0 mg/kg/injection, schedule: Q04DX003 (ip), vehicle: saline with Tween-80

Compound: NC1=NS(=O)(=O)c2ccccc21
- T/C [1]: 101 % of control
- T/C [2]: 106 % of control
- T/C [3]: 99 % of control

Compound: COC(CCC1CO1)OC (centres undefined)
- T/C [4]: 100 % of control
- T/C [5]: 96 % of control
- T/C [6]: 99 % of control

Compound: O=c1c(/C=C\Nc2ccccc2)c(-c2ccccc2)c1=O
- T/C (dose: 100.0 mg/kg/injection, schedule: Q01DX001 (ip), vehicle: saline with Tween-80): 100 % of control
- T/C (dose: 200.0 mg/kg/injection, schedule: Q01DX001 (ip), vehicle: saline with Tween-80): 92 % of control
- T/C (dose: 400.0 mg/kg/injection, schedule: Q01DX001 (ip), vehicle: saline with Tween-80): 92 % of control

Compound: O=C1C=CC(=Nc2cccc3c2C(=O)c2ccccc2-3)O1
- T/C [1]: 107 % of control and 115 % of control
- T/C [2]: 120 % of control and 122 % of control
- T/C [3]: 122 % of control

Compound: CCOP(=O)(c1ccccc1)N1CCOCC1 (centres undefined)
- T/C (dose: 100.0 mg/kg/injection, schedule: Q04DX003 (ip), vehicle: saline): 105 % of control
- T/C (dose: 200.0 mg/kg/injection, schedule: Q04DX003 (ip), vehicle: saline): 108 % of control
- T/C (dose: 400.0 mg/kg/injection, schedule: Q04DX003 (ip), vehicle: saline): 95 % of control

Compound: Cc1cc2nnc(-c3ccc(C#N)cc3)n2c2nnnn12
- T/C [7]: 100 % of control
- T/C [1]: 100 % of control
- T/C [2]: 104 % of control
- T/C [3]: 104 % of control

Compound: C[CH2][Sn]([Cl])([CH2]C)[c]1cc[c]([Sn]([Cl])([CH2]C)[CH2]C)cc1
- T/C (dose: 0.02 mg/kg/injection, schedule: Q01DX005 (ip), vehicle: Klucel (hydroxypropylcellulose) (HPC)): 118 % of control

Compound: COCCOC(=O)CCn1cc(F)c(=O)[nH]c1=O
- T/C (dose: 30.0 mg/kg/injection, schedule: Q04DX002 (ip), vehicle: saline): 92 % of control
- T/C (dose: 60.0 mg/kg/injection, schedule: Q04DX002 (ip), vehicle: saline): 108 % of control
- T/C (dose: 120.0 mg/kg/injection, schedule: Q04DX002 (ip), vehicle: saline): 96 % of control
- T/C (dose: 200.0 mg/kg/injection, schedule: Q04DX002 (ip), vehicle: saline): 91 % of control and 123 % of control
- T/C (dose: 240.0 mg/kg/injection, schedule: Q04DX002 (ip), vehicle: saline): 96 % of control
- T/C (dose: 400.0 mg/kg/injection, schedule: Q04DX002 (ip), vehicle: saline): 93 % of control
- T/C (dose: 600.0 mg/kg/injection, schedule: Q04DX002 (ip), vehicle: saline): 91 % of control
- T/C (dose: 800.0 mg/kg/injection, schedule: Q04DX002 (ip), vehicle: saline): 118 % of control
- T/C (dose: 1600.0 mg/kg/injection, schedule: Q04DX002 (ip), vehicle: saline): 155 % of control

Compound: Cc1ccccc1N1CCN(c2ccccc2C)C1=C1N(c2ccccc2C)CCN1c1ccccc1C
- T/C (dose: 85.0 micrograms/kg/injection, schedule: Q01DX009 (ip), vehicle: DMSO): 101 % of control
- T/C (dose: 190.0 micrograms/kg/injection, schedule: Q01DX009 (ip), vehicle: DMSO): 93 % of control
- T/C (dose: 380.0 micrograms/kg/injection, schedule: Q01DX009 (ip), vehicle: DMSO): 93 % of control

Compound: ClC1=C(Cl)C2(Cl)C=CC1(Cl)C2
- T/C [1]: 106 % of control
- T/C [2]: 106 % of control
- T/C [3]: 108 % of control

Compound: O=C1NC(N(CCCl)CCCl)=NC1(c1ccccc1)c1ccccc1
- T/C (dose: 12.5 mg/kg/injection, schedule: Q04DX002 (ip), vehicle: saline with Tween-80): 97 % of control
- T/C (dose: 25.0 mg/kg/injection, schedule: Q04DX002 (ip), vehicle: saline with Tween-80): 94 % of control
- T/C [8]: 94 % of control
- T/C [9]: 106 % of control
- T/C [10]: 96 % of control

Compound: COc1cc(C(CC(=O)O)CC(=O)O)cc(OC)c1OC
- T/C [1]: 93 % of control
- T/C [2]: 95 % of control
- T/C [3]: 95 % of control

Compound: CCCCCCC([Se]C)C(O)(CCC)CCC (centres undefined)
- T/C (dose: 25.0 mg/kg/injection, schedule: Q04DX003 (ip), vehicle: saline with Tween-80): 100 % of control
- T/C (dose: 50.0 mg/kg/injection, schedule: Q04DX003 (ip), vehicle: saline with Tween-80): 100 % of control
- T/C [11]: 91 % of control

Compound: CCC(=O)OC1CC2(C)C(=CC1=O)CCC1C2CCC2(C)C(OC(=O)CC)CCC12 (centres undefined)
- T/C [4]: 100 % of control
- T/C [5]: 95 % of control
- T/C [11]: 100 % of control
- T/C [6]: 100 % of control
- T/C (dose: 200.0 mg/kg/injection, schedule: Q04DX003 (ip), vehicle: saline with Tween-80): 100 % of control

Compound: Cc1ccc(N=CN(C)C=Nc2ccc(C)cc2C)c(C)c1
- T/C (dose: 50.0 mg/kg/injection, schedule: Q01DX009 (ip), vehicle: suspension in saline): 104 % of control
- T/C (dose: 100.0 mg/kg/injection, schedule: Q01DX009 (ip), vehicle: suspension in saline): 113 % of control
- T/C (dose: 200.0 mg/kg/injection, schedule: Q01DX009 (ip), vehicle: suspension in saline): 107 % of control

Compound: COc1cccc2c1C(=O)c1c(O)c3c(c(O)c1C2=O)C[C@@](O)(C(C)O)C[C@@H]3OC1CC(N(Cc2ccccc2)Cc2ccccc2)C(O)C(C)O1 (some centres undefined)
- T/C (dose: 4.7 mg/kg/injection, schedule: Q04DX003 (ip), vehicle: water): 121 % of control
- T/C (dose: 6.25 mg/kg/injection, schedule: Q01DX009 (ip), vehicle: water): 165 % of control
- T/C (dose: 12.5 mg/kg/injection, schedule: Q01DX009 (ip), vehicle: water): 228 % of control and 233 % of control
- T/C (dose: 25.0 mg/kg/injection, schedule: Q01DX009 (ip), vehicle: water): 97 % of control
- T/C (dose: 25.0 mg/kg/injection, schedule: Q04DX003 (ip), vehicle: water): 194 % of control
- T/C (dose: 37.5 mg/kg/injection, schedule: Q04DX003 (ip), vehicle: water): 106 % of control
- T/C (dose: 50.0 mg/kg/injection, schedule: Q04DX003 (ip), vehicle: water): 233 % of control
- T/C (dose: 75.0 mg/kg/injection, schedule: Q04DX003 (ip), vehicle: water): 116 % of control

Compound: CC1=C(O)c2ccccc2C(=O)C1=O
- T/C (dose: 12.5 mg/kg/injection, schedule: Q01DX009 (ip), vehicle: saline with Tween-80): 101 % of control
- T/C (dose: 25.0 mg/kg/injection, schedule: Q01DX009 (ip), vehicle: saline with Tween-80): 113 % of control and 90 % of control
- T/C [4]: 105 % of control and 116 % of control
- T/C [5]: 92 % of control
- T/C [6]: 90 % of control

Compound: NC(=O)N(c1ccccc1)c1ccccn1
- T/C (dose: 60.0 mg/kg/injection, schedule: Q01DX005 (ip), vehicle: saline with Tween-80): 97 % of control
- T/C (dose: 120.0 mg/kg/injection, schedule: Q01DX005 (ip), vehicle: saline with Tween-80): 97 % of control
- T/C (dose: 240.0 mg/kg/injection, schedule: Q01DX005 (ip), vehicle: saline with Tween-80): 94 % of control

Compound: COC(=O)[C@@]12OC[C@]34[C@H]([C@@H](O)[C@@H]1O)[C@@]1(C)CC(=O)C(O)=C(C)[C@@H]1C[C@H]3OC(=O)[C@H](OC(=O)/C=C(/C)C(C)(C)O)[C@@H]24
- T/C (dose: 0.25 mg/kg/injection, schedule: Q01DX009 (ip), vehicle: saline + alcohol): 113 % of control and 115 % of control
- T/C (dose: 0.5 mg/kg/injection, schedule: Q01DX009 (ip), vehicle: saline + alcohol): 115 % of control (2×) and 124 % of control
- T/C (dose: 8.0 mg/kg/injection, schedule: Q01DX009 (ip), vehicle: saline + alcohol): 162 % of control

Compound: C/C(=C\c1ccc([N+](=O)[O-])cc1)C(=O)NC(C)C
- T/C (dose: 50.0 mg/kg/injection, schedule: Q01DX005 (ip), vehicle: other): 102 % of control
- T/C (dose: 100.0 mg/kg/injection, schedule: Q01DX005 (ip), vehicle: other): 93 % of control
- T/C (dose: 200.0 mg/kg/injection, schedule: Q01DX005 (ip), vehicle: other): 105 % of control

Compound: CO[Si](CCCN)(OC)OC
- T/C (dose: 50.0 mg/kg/injection, schedule: Q01DX009 (ip), vehicle: saline): 119 % of control
- T/C (dose: 100.0 mg/kg/injection, schedule: Q01DX009 (ip), vehicle: saline): 105 % of control
- T/C (dose: 200.0 mg/kg/injection, schedule: Q01DX009 (ip), vehicle: saline): 110 % of control

Compound: C=Cc1c(C)c2[nH]c1=CC1=NC(=CC3=NC(=CC4=C(C)/C(=C\NO)C(=N4)C=2)C(C)=C3CCC(=O)OC)C(CCC(=O)OC)=C1C
- T/C (dose: 50.0 mg/kg/injection, schedule: Q01DX005 (ip), vehicle: Klucel (hydroxypropylcellulose) (HPC)): 95 % of control
- T/C (dose: 100.0 mg/kg/injection, schedule: Q01DX005 (ip), vehicle: Klucel (hydroxypropylcellulose) (HPC)): 99 % of control
- T/C (dose: 200.0 mg/kg/injection, schedule: Q01DX005 (ip), vehicle: Klucel (hydroxypropylcellulose) (HPC)): 99 % of control

Compound: COc1ccc(/C=N\N=C(/[O-])c2ccccc2O)cc1.COc1ccc(/C=N\N=C(/[O-])c2ccccc2O)cc1.[Mn+2].[OH3+].[OH3+]
- T/C [8]: 107 % of control
- T/C [9]: 108 % of control
- T/C [10]: 114 % of control

Compound: COC(=O)CC1(O)C=CC(=O)c2ccccc21 (centres undefined)
- T/C (dose: 12.5 mg/kg/injection, schedule: Q01DX005 (ip), vehicle: saline with Tween-80): 94 % of control
- T/C [7]: 100 % of control
- T/C [1]: 109 % of control
- T/C [2]: 112 % of control
